{"source": "paper PMC11596155", "about": "“When Chirality Makes the Difference: The Case of Novel Enantiopure N-Heterocyclic Carbene–Gold and –Silver Complexes” (Molecules, 2024)", "key": {"MCF-10A cells": {"system": "MCF-10A cells", "test": "MTT assay, cytotoxicity on normal mammary epithelial cells MCF-10A", "format": "cell-based, human", "conditions": "72 h", "experimental": "(§1) All cell lines used for the reported studies were purchased from the American Type Culture Collection (ATCC, Manassas, VA, USA). Human breast cancer cells MCF-7 and MDA-MB-231 were maintained in Dulbecco’s Modified Eagle Medium/Nutrient Mixture F12 Ham (DMEM/F12) supplemented with 5% fetal bovine serum (FBS), 1% L-glutamine and 100 units/mL of penicillin/streptomycin. Human mammary epithelial cells MCF-10A were cultured in DMEM/F12 medium, supplemented with 5% horse serum (HS), 100 units/mL of penicillin/streptomycin, […], 0.02 µg/mL human epidermal growth factor (EGF), 10 µg/mL insulin and […] [34]. The murine macrophages RAW 264.7 were grown in Dulbecco’s Modified Eagle’s Medium (DMEM) high glucose (4.5 g/L), added with 10% fetal bovine serum (FBS), 1% L-glutamine and 100 units/mL of penicillin/streptomycin. Cells were maintained at 37 °C, in a humidified atmosphere containing 5% CO2.\n(§2) Cell viability was determined using the 3-(4,5-dimethylthiazol-2-y1)-2,5-diphenyltetrazolium bromide assay (MTT, Sigma-Aldrich, Milan, Italy), as in [35]. Cells were treated for 72 h (anticancer activity) or 24 h (anti-inflammatory activity) at different concentrations and the IC50 values were obtained using GraphPad Prism 9 software (GraphPad Software, La Jolla, CA, USA)."}, "MDA-MB-231 cells": {"system": "MDA-MB-231 cells", "test": "MTT assay, anticancer activity, MDA-MB-231", "format": "cell-based, human", "conditions": "72 h, mean ± SD of three experiments", "experimental": "as §1, §2"}, "[1]": {"system": "NO production in LPS-stimulated RAW 264.7 macrophages (iNOS)", "test": "Griess assay, NO production in LPS-stimulated RAW 264.7 macrophages", "format": "cell-based, murine", "conditions": "24 h, LPS 1 µg/mL, RAW 264.7, vs LPS only", "excerpt": "Inflammation is an important process, in which the immune system is activated, allowing the protection from infections by eliminating pathogens and promoting repairing phenomena. However, in some cases, the inflammation can become chronic, playing a key role in several diseases, such as cancer, diabetes, autoimmune and neurodegenerative disorders. Moreover, chronic inflammation is characterized by a proliferation of different specialized cells, for instance macrophages, fibroblasts, granulocytes and so on. […] NO is produced by nitric oxide synthases (NOS) isoforms, but under different pro-inflammatory stimuli (cytokines or microbial products) it is massively produced by the inducible NOS (iNOS, NOS2; or type II NOS). iNOS can be also overexpressed in several diseases, producing NO in an unregulated manner and contributing to the disease progression. For these reasons, its inhibition represents a good strategy for the treatment of various diseases related to chronic inflammation, amongst them cancer. The anti-inflammatory activity, in terms of NO production inhibition, of the new synthesized chiral complexes was evaluated by the means of a Griess-based assay. Particularly, the NO production was induced in murine macrophages RAW 264.7 stimulated with bacterial lipopolysaccharide (LPS), then they were exposed to the complexes for 24 h and the released NO was quantified (as detailed in the Section 3). […] Therefore, pro-ligands P1 and P2, as R and S pure enantiomers, were tested. The obtained outcomes are visible in Figure 2 (panels A and B, P1 and P2 series, respectively), where it is possible to notice “at glance” that most of the enantiopure compounds were unable to decrease the NO synthesis, induced by LPS treatment in RAW 264.7 macrophages (see pink bars in the graph), with the exception of (R)-AuL1 and (R)-AuL2. Particularly, (R)-AuL1 was able to decrease, dose-dependently, the NO production of about 23 and 35% at 5 and 10 µM, respectively, whereas the S enantiomer was unable to reduce NO, under the same experimental conditions. […] Furthermore, none of the pro-ligands was found able to decrease NO production. […] Finally, viability assays were performed on RAW 264.7 macrophages, recovered after the Griess test.\nAnti-inflammatory activity was tested adopting the Griess assay on RAW 264.7 murine macrophages, by measuring NO production, as reported by. Specifically, RAW 264.7 cells were plated on 48 multi-wells and treated with the tested molecules at the indicated concentrations; lipopolysaccharide (LPS, Sigma Aldrich, Milan, Italy), at a final concentration of 1 µg/mL, was used to induce inflammation and stimulate NO production. After 24 h, the cell medium and Griess reagent were mixed at a 1:1 ratio and left under agitation for 30 min, at room temperature. Then, absorbance was measured at 540 nm, using a multiplate reader. The absorbance obtained allowed to assess the percentage of NO production compared with the positive control, in which the cells have been treated with LPS.\nFigure 2 Panel (A), L1 series and panel (B), L2 series. Anti-inflammatory activity (pink bars): NO production was induced in murine macrophages RAW 264.7 treated with LPS (1 µg/mL), in presence or not of the enantiopure complexes and pro-ligands at the indicated concentrations (µM), for 24 h. Indomethacin (Ind) was used as the reference molecule. Data were plotted as % NO inhibition with respect to LPS-only treatment. […]"}, "MCF-7 cells": {"system": "MCF-7 cells", "test": "MTT assay, anticancer activity, MCF-7", "format": "cell-based, human", "conditions": "72 h, mean ± SD of three experiments", "experimental": "as §1, §2"}, "[2]": {"system": "Escherichia coli (ATCC 25922)", "test": "MIC and MBC by broth dilution, E. coli", "format": "cell-based", "conditions": "broth dilution, overnight 37 °C", "excerpt": "(§3) The bacterial strains used for MIC and MBC value determinations expressed as µg/mL by the broth dilution method, according to CLSI guidelines, were the following: Gram-negative: Escherichia coli (ATCC® 25922TM); Gram-positive: Staphylococcus aureus (ATCC® 23235TM). The MIC represents the lowest concentration of compound able to inhibit the visible microbial growth, expressed in μg/mL, whereas the MBC is the lowest concentration of a given compound that can completely kill the bacteria. Bacteria were grown overnight in LB medium (2%), diluted at a density of […] colony forming units (CFUs/mL), plated in the 96-well microplates to obtain a total inoculum load of ca. 10^5 cells/well and then treated with increasing concentrations of the tested complexes (1, 5, 10, 20, 50, 100, 200 μg/mL). Successively, after incubation at 37 °C overnight, the bacterial growth was monitored at a wavelength of 600 nm using a Multiskan spectrophotometer (Multiskan Ex Microplate model; Thermo Scientific, Nyon, Switzerland). MIC or MBC values were obtained by comparing cell density with a positive control (bacterial cells grown in LB medium were added with only the vehicle, DMSO). The results were representative of three independent experiments performed in triplicate and ampicillin (Sigma Aldrich A9393) was used as the control for strain sensitivity."}, "[3]": {"system": "Staphylococcus aureus (ATCC 23235)", "test": "MIC and MBC by broth dilution, S. aureus", "format": "cell-based", "conditions": "broth dilution, overnight 37 °C", "excerpt": "as §3"}}, "data": [{"smiles": "CN1C(Cl)=C(Cl)N(C[C@H](O)c2ccccc2)[CH]1[Au-][Cl]", "note": "(stereo partly drawn) [(R)-AuL2, (4,5-dichloro-1-((R)-2-hydroxy-2-phenylethyl)-3-methyl-2,3-dihydro-1H-imidazol-2-yl)gold(I) chloride]", "values": [{"measurement": "cytotoxicity toward normal MCF-10A cells (in words)", "setting": "MCF-10A cells", "value": "did not impact"}, {"measurement": "IC50", "setting": "MCF-10A cells; normal cells, mean ± SD of three experiments", "value": "38000 ± 2200", "unit": "nM"}, {"measurement": "IC50", "setting": "MDA-MB-231 cells", "value": "1200 ± 200", "unit": "nM"}, {"measurement": "decrease of NO production", "setting": "[1]; 1 µM", "value": "about 10%"}, {"measurement": "decrease of NO production", "setting": "[1]; 5 µM", "value": "~50", "unit": "%"}, {"measurement": "IC50", "setting": "MCF-7 cells", "value": "2200 ± 200", "unit": "nM"}, {"measurement": "M.B.C. E. coli", "setting": "[2]", "value": "> 150", "unit": "µg/mL"}, {"measurement": "M.I.C. E. coli", "setting": "[2]", "value": 75, "unit": "µg/mL"}, {"measurement": "M.B.C. S. aureus", "setting": "[3]", "value": "> 100", "unit": "µg/mL"}, {"measurement": "M.I.C. S. aureus", "setting": "[3]", "value": 75, "unit": "µg/mL"}]}]}
